Columns and labels:
Type in all cases: in vivo
[1] = test system: velvetleaf (Abutilon theophrasti); experiment: Test C preemergence
Procedure, shortened: (§1)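 Formulation: non-phytotoxic solvent mix incl. surfactant. Pre: applied right after planting. Post: 1–4-leaf seedlings. Read: visual 0–100, day 12–14, greenhouse.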

Sunflower = experiment: Test C preemergence; conditions: Rate 62 g/ha; scale 0 to 100, 0 no effect, 100 complete control
[2] = test system: morningglory (Ipomoea hederacea); experiment: Test C preemergence
Procedure, shortened: as §1

[3] = test system: pigweed (Amaranthus retroflexus); experiment: Test C preemergence
Procedure, shortened: as §1

[4] = test system: johnsongrass (Sorghum halepense); experiment: Test C preemergence
Procedure, shortened: as §1

kochia (Kochia scoparia) = experiment: Test C preemergence
Procedure, shortened: as §1

[5] = test system: common ragweed (Ambrosia elatior); experiment: Test C preemergence
Procedure, shortened: as §1

[6] = test system: goosegrass (Eleusine indica); experiment: Test C preemergence
Procedure, shortened: as §1

[7] = test system: woolly cupgrass (Eriochloa villosa); experiment: Test C preemergence
Procedure, shortened: as §1

[8] = test system: yellow nutsedge (Cyperus esculentus); experiment: Test C preemergence
Procedure, shortened: as §1

Nightshade = experiment: Test C preemergence
[9] = test system: crabgrass (Digitaria sanguinalis); experiment: Test C preemergence
Procedure, shortened: as §1

[10] = test system: Surinam grass (Brachiaria decumbens); experiment: Test C preemergence
Procedure, shortened: as §1

[11] = test system: cocklebur (Xanthium strumarium); experiment: Test C preemergence; conditions: preemergence
Procedure, shortened: as §1

[12] = test system: lambsquarters (Chenopodium album); experiment: Test C preemergence
Procedure, shortened: as §1

soybean (Glycine max) = experiment: Test C preemergence
Procedure, shortened: as §1

corn (Zea mays) = experiment: Test C preemergence
Procedure, shortened: as §1

[13] = test system: giant foxtail (Setaria faberii); experiment: Test C preemergence
Procedure, shortened: as §1

[14] = test system: bermudagrass (Cynodon dactylon); experiment: Test C preemergence
Procedure, shortened: as §1

[15] = test system: barnyardgrass (Echinochloa crus-galli); experiment: Test C flooded paddy test; conditions: for Barnyardgrass plant response rating: Flooded Paddy, scale 0 to 100, 0 no effect, 100 complete control; for Plant response rating, Barnyardgrass: flooded paddy test, scale 0 to 100 (0 no effect, 100 complete control)
Procedure, shortened: (§2)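 Greenhouse-maintained for 12 to 14 days after treatment, the paddy plants (2-leaf stage at application) were scored visually against controls. A score of 0 denotes no effect and a score of 100 denotes complete control.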

[16] = test system: duck salad (Heteranthera limosa); experiment: Test C flooded paddy test; conditions: for Ducksalad plant response rating: Flooded Paddy, scale 0 to 100, 0 no effect, 100 complete control; for Plant response rating, Ducksalad: flooded paddy test, scale 0 to 100 (0 no effect, 100 complete control)
Procedure, shortened: as §2

[17] = test system: smallflower flatsedge (Cyperus difformis); experiment: Test C flooded paddy test; conditions: for Flatsedge plant response rating: Flooded Paddy, scale 0 to 100, 0 no effect, 100 complete control; for Plant response rating, Flatsedge: flooded paddy test, scale 0 to 100 (0 no effect, 100 complete control)
Procedure, shortened: as §2

[18] = Rate 62 g/ha, scale 0 to 100, 0 no effect, 100 complete control
[19] = preemergence, Rate 31 g/ha, scale 0 to 100
[20] = preemergence, Rate 250 g/ha, visual evaluation after 12 to 14 days
[21] = preemergence, Rate 125 g/ha, scale 0 to 100, 0 no effect, 100 complete control
[22] = Rate 125 g/ha, scale 0 to 100, 0 no effect, 100 complete control

O=C1C(n2ccc(C3CCC3)n2)SCN1c1cccc(C(F)(F)F)c1 (stereo not shown) [Compound 37]
Plant response rating, Velvetleaf [1, 18]: 0 | Plant response rating, Velvetleaf [1, 19]: 0 | Plant response rating (0 to 100), Velvetleaf [1, 20]: 20 | Plant response rating, Velvetleaf [1, 21]: 20 | Plant response rating, Sunflower (Sunflower): 0 | Plant response rating, Morningglory [2, 18]: 0 | Plant response rating, Morningglory [2, 19]: 0 | Plant response rating (0 to 100), Morningglory [2, 20]: 30 | Plant response rating, Morningglory [2, 21]: 0 | Plant response rating, Pigweed [3, 18]: 0 | Plant response rating, Pigweed [3, 19]: 0 | Plant response rating (0 to 100), Pigweed [3, 20]: 100 | Plant response rating, Pigweed [3, 21]: 0 | Plant response rating, Johnsongrass [4, 18]: 30 | Plant response rating, Johnsongrass [4, 19]: 20 | Plant response rating (0 to 100), Johnsongrass [4, 20]: 90 | Plant response rating, Johnsongrass [4, 21]: 30 | Plant response rating, Kochia (kochia (Kochia scoparia); [18]): 50 | Plant response rating, Kochia (kochia (Kochia scoparia); [19]): 40 | Plant response rating (0 to 100), Kochia (kochia (Kochia scoparia); [20]): 100 | Plant response rating, Kochia (kochia (Kochia scoparia); [21]): 100 | Plant response rating, Ragweed, Common [5, 18]: 0 | Plant response rating, Ragweed, Common [5, 19]: 0 | Plant response rating (0 to 100), Ragweed, Common [5, 20]: 60 | Plant response rating, Ragweed, Common [5, 21]: 20 | Plant response rating, Goosegrass [6, 18]: 90 | Plant response rating, Goosegrass [6, 19]: 60 | Plant response rating (0 to 100), Goosegrass [6, 20]: 100 | Plant response rating, Goosegrass [6, 21]: 90 | Plant response rating, Cupgrass, Woolly [7, 18]: 0 | Plant response rating, Cupgrass, Woolly [7, 19]: 0 | Plant response rating (0 to 100), Cupgrass, Woolly [7, 20]: 100 | Plant response rating, Cupgrass, Woolly [7, 21]: 0 | Plant response rating, Nutsedge [8, 18]: 20 | Plant response rating, Nutsedge [8, 19]: 0 | Plant response rating (0 to 100), Nutsedge [8, 20]: 30 | Plant response rating, Nutsedge [8, 21]: 20 | Plant response rating, Nightshade (Nightshade; Rate 31 g/ha, scale 0 to 100): 0 | Plant response rating, Nightshade (Nightshade; [18]): 0 | Plant response rating, Nightshade (Nightshade; [22]): 0 | Plant response rating, Crabgrass [9, 18]: 90 | Plant response rating, Crabgrass [9, 19]: 80 | Plant response rating (0 to 100), Crabgrass [9, 20]: 100 | Plant response rating, Crabgrass [9, 21]: 90 | Plant response rating, Surinam grass [10, 18]: 0 | Plant response rating, Surinam grass [10, 19]: 0 | Plant response rating (0 to 100), Surinam grass [10, 20]: 90 | Plant response rating, Surinam grass [10, 21]: 0 | Plant response rating, Cocklebur ([11]; Rate 31 g/ha, scale 0 to 100): 0 | Plant response rating (0 to 100), Cocklebur ([11]; Rate 250 g/ha, visual evaluation after 12 to 14 days): 0 | Plant response rating, Cocklebur [11, 22]: 0 | Plant response rating, Lambsquarters [12, 18]: 100 | Plant response rating, Lambsquarters [12, 19]: 100 | Plant response rating (0 to 100), Lambsquarters [12, 20]: 100 | Plant response rating, Lambsquarters [12, 21]: 100 | Plant response rating, Soybean (soybean (Glycine max); [18]): 0 | Plant response rating, Soybean (soybean (Glycine max); [19]): 0 | Plant response rating (0 to 100), Soybean (soybean (Glycine max); [20]): 50 | Plant response rating, Corn (corn (Zea mays); [18]): 0 | Plant response rating, Corn (corn (Zea mays); [19]): 0 | Plant response rating (0 to 100), Corn (corn (Zea mays); [20]): 40 | Plant response rating, Corn (corn (Zea mays); [21]): 40 | Plant response rating, Foxtail, Giant [13, 18]: 60 | Plant response rating, Foxtail, Giant [13, 19]: 50 | Plant response rating (0 to 100), Foxtail, Giant [13, 20]: 100 | Plant response rating, Foxtail, Giant [13, 21]: 70 | Plant response rating, Bermudagrass [14, 18]: 70 | Plant response rating, Bermudagrass [14, 19]: 60 | Plant response rating (0 to 100 where 0 is no effect and 100 is complete control), Bermudagrass [14, 20]: 100 | Plant response rating, Bermudagrass [14, 21]: 80 | Barnyardgrass plant response rating ([15]; Rate 250 g/ha): 100 | Barnyardgrass plant response rating ([15]; Rate 500 g/ha): 100 | Plant response rating, Barnyardgrass ([15]; Rate 62 g/ha): 70 | Plant response rating, Barnyardgrass ([15]; Rate 125 g/ha): 100 | Ducksalad plant response rating ([16]; Rate 250 g/ha): 90 | Ducksalad plant response rating ([16]; Rate 500 g/ha): 100 | Plant response rating, Ducksalad ([16]; Rate 62 g/ha): 20 | Plant response rating, Ducksalad ([16]; Rate 125 g/ha): 80 | Flatsedge plant response rating ([17]; Rate 250 g/ha): 100 | Flatsedge plant response rating ([17]; Rate 500 g/ha): 100 | Plant response rating, Flatsedge ([17]; Rate 62 g/ha): 100 | Plant response rating, Flatsedge ([17]; Rate 125 g/ha): 100
